{
  "source": "patent US20110171291A1",
  "about": "“PATHOLOGICALLY-ACTIVATED THERAPEUTICS” (Sanford-Burnham Medical Research Institute, priority 2010, published 2011)",
  "key": {"[1]": {"test_system": "AMPA/KA-type glutamate receptor", "test": "Primary screen of the LOPAC 1280 library: Fluo-4 NW calcium entry induced by kainate in cultured cerebrocortical neurons", "assay_type": "cell-based", "conditions": "three separate screens; 200 μM KA", "experimental": "FIGS. 19a and 19b show the fluorescence response indicating calcium ion entry induced by Kainate (KA) at AMPA-type glutamate receptor channels in cultured neurons. Fluorescent dye loading is accomplished by adding Fluo-4 NW to cells at 37° C. for 20 min and at RT (room temperature) for 10 min. The cells are incubated with compounds to be screened (generally 1 to 10 μM in 1% DMSO) for 2 min, followed by incubation with 200 μM kainate (KA) for 10 min (20 μM KA is used for the second, lower concentration of agonist—not shown here). […] The Z-factor, a statistical indication of the robustness of a high-throughput screen, fluctuated between 0.54-0.73 through the time course. This range of Z-factors is more than adequate for HTS (a value of Z≧0.5 generally indicates a robust screen).\nThe disclosed methods screen for uncompetitive drugs against a number of targets. […] Primary neurons or cell lines are used that contain (or are genetically engineered to contain) a target molecule on their surface, such as the AMPA/kainate-type glutamate receptors with unedited GluR2 subunits or other molecules that result in intracellular Ca^2+ signaling, such as G-protein-coupled receptors. […] Screening (by quantifying the Ca^2+ response) with two concentrations of agonist for the target, a low concentration and a higher concentration, against chemicals in the library administered at a single micromolar concentration. For these AMPA receptors, kainate can be used as the agonist for HTS because the responses are less desensitizing than those to AMPA. The agonist results in an increase in intracellular Ca^2+ that can be monitored by HTS using the Ca^2+ indicator dye fluo-4 NW.\nUsing cerebrocortical neurons and calcium-sensitive dyes, as described above, conditions have been optimized for screening for AMPA/Kainate-receptor antagonists. For this purpose, the following experimental parameters were varied: cell density, composition of culture medium, length of cultures, type of calcium-sensitive dye, and condition (temperature and length) of dye loading. The following protocol was established. […]"}, "NMDA receptor": {"test_system": "NMDA receptor", "test": "Excitatory postsynaptic currents (EPSCs) recorded from the hippocampal autapse preparation", "assay_type": "cell-based", "conditions": "1 μM", "excerpt": "Note that the initial component of the EPSC is mediated by AMPA-sensitive glutamate receptors, whereas a delayed component is mediated by NMDA receptors. […] See Chen, H.-S. V. et al. Neuroscience 86, 1121-1132 (1998)."}, "[2]": {"test_system": "brain damage after the ischaemic event", "conditions": "given up to 2 hours after the ischaemic event; cited from earlier work"}, "rhodanese": {"test_system": "rhodanese", "test": "PDI chaperone activity: aggregation of guanidinium-denatured rhodanese", "assay_type": "biochemical", "conditions": "1 μM recombinant PDI", "experimental": "To determine whether S-nitrosylation affects PDI function, PDI chaperone and isomerase activities were monitored. Chaperone activity was assessed in a standard assay by measuring the degree of aggregation of rhodanese induced by guanidinium, as previously described9. Rhodanese aggregation occurred in a time-dependent manner, and incubation with recombinant wild-type PDI, but not dominantnegative PDI (produced by the N-terminal and C-terminal mutant) (Ko, H. S., et al. J. Biol. Chem., 277, 35386-35392, (2002)), suppressed this aggregation by about 80%. […] Thus, S-nitrosylation inhibited the functional activities of PDI. […] Therefore, the inhibitory effect of PDI on the aggregation of synphilin-1 was investigated, as observed in Lewy body inclusions in the brains of PD patients. First, it was tested if PDI could prevent the ubiquitinated, Lewy-body-like inclusions that are formed in the cytosol after synphilin-1 overexpression in cultured SH-SY5Y cells (See FIG. 2c). […]\nChaperone activity of PDI was measured by analyzing the renaturation (refolding) of denatured rhodanese in the presence of 1 μM PDI or its mutant form (Vuori, K., et al. J. Biol. Chem, 267, 7211-7214, (1992); Horibe, T. et al. J. Biol. Chem. 279, 4604-4611 (2004); Martin, J. et al. Nature 352, 36-42 (1991)). […] The aggregation of denatured rhodanese was monitored by the increase in absorbance at 320 nm. […]"}},
  "data": [
    {"molecule": "N#Cc1cc2[nH]c(=O)c(=O)[nH]c2cc1[N+](=O)[O-]", "note": "[CNQX]", "values": [
      {"measurement": "scored as hit (significantly blocked calcium entry induced by KA)", "setting": "[1]", "value": "positively scored"}
    ]},
    {"molecule": "O=[N+]([O-])c1cc2nc(O)c(O)nc2cc1[N+](=O)[O-]", "note": "[DNQX]", "values": [
      {"measurement": "scored as hit (significantly blocked calcium entry induced by KA)", "setting": "[1]", "value": "scored positively in all three screens"}
    ]},
    {"molecule": "C[C@]12N[C@H](Cc3ccccc31)c1ccccc12", "note": "[MK-801, dizocilpine]", "values": [
      {"measurement": "block of the NMDA receptor-mediated component of the EPSC", "setting": "NMDA receptor", "value": "complete blockade"}
    ]},
    {"molecule": "NS(=O)(=O)c1cccc2c1c([N+](=O)[O-])cc1nc(O)c(O)nc12", "note": "[NBQX]", "values": [
      {"measurement": "scored as hit (significantly blocked calcium entry induced by KA)", "setting": "[1]", "value": "scored positively in all three screens"}
    ]},
    {"molecule": "CC12CC3CC(C)(C1)CC(N)(C3)C2", "note": "[memantine]", "values": [
      {"measurement": "block of the NMDA receptor-mediated component of the EPSC", "setting": "NMDA receptor", "value": "10-15%"},
      {"measurement": "reduction of brain damage", "setting": "[2]", "value": "approximately 50%"}
    ]},
    {"molecule": "wild-type PDI: recombinant wild-type protein-disulphide isomerase", "values": [
      {"measurement": "suppression of rhodanese aggregation", "setting": "rhodanese", "value": "about 80%"}
    ]}
  ]
}
